We go through three compounds from patent publication US20230265098A1, “ALKYNE QUINAZOLINE DERIVATIVES AS INHIBITORS OF ERBB2” (EnLiven Therapeutics, Inc., priority 2020, published 2023).

Experiment [1] concerns A431 cells. Nature of the experiment: Cell viability assay (CellTiter Glo). The settings on record: Homo sapiens, A-431; 72 hours; 1500 cells per well, 384-well; DMEM + 10% FBS. It counts as cell-based. As to the method: (§1) Cells were treated with compounds, and cell viability was measured as a metric of kinase inhibition.
(§2) The Ba/F3 cell line is IL-3-dependent mouse cell line derived from the C3H mouse strain. Ba/F3 cell lines were engineered to express human ERBB2 or EGFR kinases, rendering the cells IL-3 independent. The lines were generated via retroviral transduction utilizing a Moloney murine leukemia virus (MMLV) promoter, and constructs are stably integrated into the cell genome.
(§3) Similarly, Ba/F3 cell lines engineered to express EGFR, ERBB2, or ERBB2 mutants were grown, harvested, counted and seeded at 3000 cells per well in 96-well plates for the data sets shown in Tables B3-B4, and seeded at 300 cells per well in 384-well plates for the data set shown in Table B5. A subset of wells contained media only (low control, “LC”).
(§4) Table B2 provides the growth media and number of cells seeded per well for the each cell line.
(§5) Compounds were dissolved in DMSO and serially diluted. Serially-diluted compound or a DMSO only control (high control, “HC”) was added to the plated cells in each well. […] The final proportion of DMSO never exceeded 0.1%.
(§6) Plates were placed in a 37° C., 5% CO2 incubator for 72 hours. Plates were then removed from the incubator and equilibrated for 15 minutes at room temperature. 40 IA of CellTiter Glo reagent (Promega) was added to measure the relative level of metabolically active cells by quantifying intracellular ATP concentrations. Plates were incubated for 30 minutes at room temperature, and luminescence was measured. Percent viability was normalized to a vehicle control only using the following formula: % viability=100×(LumSample−LumLC) (LumHC−LumLC). Graphical curves were fitted using a nonlinear regression model with a sigmoidal dose response.
In general terms: In ATP-based viability assays light output follows the ATP content of the culture.

In experiment [2] the test system is MDA-MB-175VII cells. Nature of the experiment: Cell viability assay (CellTiter Glo). It is filed as cell-based. The settings on record: Homo sapiens, 72 hours, 2000 cells per well, 384-well, RPMI + 10% FBS. As to the method: as §1, §2, §3, §4, §5, §6
Experiment [3] has as its system BT-474 cells. Nature of the experiment: Cell viability assay (CellTiter Glo). It is filed as cell-based. The settings on record: Homo sapiens, 72 hours, 2000 cells per well, 384-well, DMEM + 10% FBS. How it is done:
as §1, §2, §3, §4, §5, §6

Experiment [4] deals with T1, Ba/F3 ERBB2-L755S (Homo sapiens, UniProt P04626, L755S, cells depend on it).
T1 construct: Ba/F3 cell lines were engineered to express human ERBB2 or EGFR kinases, rendering the cells IL-3 independent
Nature of the experiment: Cell viability assay (CellTiter Glo). The settings on record: 72 hours; 3000 cells per well, 96-well plates; read-out: Cell viability IC50, nM, Ba/F3 ERBB2-L755S. It is filed as cell-based, mouse. Summed up:
(§7)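 Murine Ba/F3 cells made IL-3-independent by retroviral human EGFR or ERBB2 were seeded at 3000 or 300 cells per well and exposed to serially diluted compound (DMSO ≤0.1%) for 72 hours at 37° C, 5% CO2. CellTiter Glo luminescence was normalised to DMSO and media-only controls and fitted to a sigmoidal dose-response.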

The target in experiment [5] is T2, Ba/F3 ERBB2-T798M (Homo sapiens, UniProt P04626, T798M, cells depend on it).
T2 construct: Ba/F3 cell lines were engineered to express human ERBB2 or EGFR kinases, rendering the cells IL-3 independent
Nature of the experiment: Cell viability assay (CellTiter Glo). It counts as cell-based, mouse. The settings on record: 72 hours; 3000 cells per well, 96-well plates; read-out: Cell viability IC50, nM, Ba/F3 ERBB2-T798M. The gist of the method:
as §7

For experiment [6], the target named is T3, Ba/F3 ERBB2-V777_G778insGC (Homo sapiens, UniProt P04626, INS778CG, cells depend on it).
T3 construct: Ba/F3 cell lines were engineered to express human ERBB2 or EGFR kinases, rendering the cells IL-3 independent
Nature of the experiment: Cell viability assay (CellTiter Glo). It counts as cell-based, mouse. The settings on record: 72 hours; 3000 cells per well, 96-well plates; read-out: Cell viability IC50, nM, Ba/F3 ERBB2-V777_G778insGC. The gist of the method: as §7

The target of experiment [7] is T4, Ba/F3 ERBB2 A775_G776insYVMA (Homo sapiens, UniProt P04626, DUP772-775, cells depend on it).
T4 construct: Ba/F3 cell lines were engineered to express human ERBB2 or EGFR kinases, rendering the cells IL-3 independent
The experiment in a line: Cell viability assay (CellTiter Glo). It counts as cell-based, mouse. To be noted: 72 hours; 3000 cells per well, 96-well plates (Tables B3-B4); read-out: Cell viability IC50, nM, Ba/F3 ERBB2 A775_G776insYVMA. The gist of the method:
as §7

In experiment [8] the target is T5, Ba/F3 ERBB2-G776VC (Homo sapiens, UniProt P04626, DELINS776-776VC, cells depend on it).
T5 construct: Ba/F3 cell lines were engineered to express human ERBB2 or EGFR kinases, rendering the cells IL-3 independent
Nature of the experiment: Cell viability assay (CellTiter Glo). It counts as cell-based, mouse. To be noted: 72 hours; 3000 cells per well, 96-well plates; read-out: Cell viability IC50, nM, Ba/F3 ERBB2-G776VC. The gist of the method:
as §7

Experiment [9] has as its target T6, Ba/F3 ERBB2-V777L (Homo sapiens, UniProt P04626, V777L, cells depend on it).
T6 construct: Ba/F3 cell lines were engineered to express human ERBB2 or EGFR kinases, rendering the cells IL-3 independent
Nature of the experiment: Cell viability assay (CellTiter Glo). It counts as cell-based, mouse. To be noted: 72 hours; 3000 cells per well, 96-well plates; read-out: Cell viability IC50, nM, Ba/F3 ERBB2-V777L. The gist of the method: as §7

For experiment [10], the target named is T7, Ba/F3 ERBB2-L869R (Homo sapiens, UniProt P04626, L869R, cells depend on it).
T7 construct: Ba/F3 cell lines were engineered to express human ERBB2 or EGFR kinases, rendering the cells IL-3 independent
Nature of the experiment: Cell viability assay (CellTiter Glo). It counts as cell-based, mouse. To be noted: 72 hours; 3000 cells per well, 96-well plates; read-out: Cell viability IC50, nM, Ba/F3 ERBB2-L869R. Summed up:
as §7

The target of experiment [11] is T8, Ba/F3 ERBB2 wt (Homo sapiens, UniProt P04626).
T8 construct: Ba/F3 cell lines were engineered to express human ERBB2 or EGFR kinases, rendering the cells IL-3 independent
Nature of the experiment: Cell viability assay (CellTiter Glo). It counts as cell-based, mouse. The settings on record: 72 hours; 3000 cells per well, 96-well plates; read-out: Cell viability IC50, nM, Ba/F3 ERBB2 wt. The gist of the method:
as §7

Experiment [12] addresses T9, phosphorylated ERBB2 (pERBB2) (Homo sapiens, UniProt P04626).
T9 construct: endogenous in cells; host or cells: BT-474
Nature of the experiment: Detection of phosphorylated ERBB2 (pERBB2) by ELISA in BT-474 cells. It counts as cell-based. To be noted: four hours incubation with compound, OD 450 nm. The gist of the method:
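BT-474 cells were treated for 4 h at 37 °C with four-fold compound dilutions from 10 μM to 0.01 nM final, then lysed. Phospho-ERBB2 in the lysates was measured by ELISA with TMB read-out at 450 nm. Relative activity was normalised between cell-free wells and 0.1% DMSO-treated cells.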
(An ELISA detects its analyte on a solid surface through an enzyme-linked reagent.)

The target in experiment [13] is T10, Ba/F3 ERBB2-P780_Y781insGSP (Homo sapiens, UniProt P04626, DUP778-780, cells depend on it).
T10 construct: Ba/F3 cell lines were engineered to express human ERBB2 or EGFR kinases, rendering the cells IL-3 independent
Nature of the experiment: Cell viability assay (CellTiter Glo). It is filed as cell-based, mouse. The settings on record: 72 hours; 3000 cells per well, 96-well plates; read-out: Cell viability IC50, nM, Ba/F3 ERBB2-P780_Y781insGSP. As to the method: as §1, §2, §3, §4, §5
Plates were placed in a 37° C., 5% CO2 incubator for 72 hours. Plates were then removed from the incubator and equilibrated for 15 minutes at room temperature. 40 IA of CellTiter Glo reagent (Promega) was added to measure the relative level of metabolically active cells by quantifying intracellular ATP concentrations. Plates were incubated for 30 minutes at room temperature, and luminescence was measured. […] Graphical curves were fitted using a nonlinear regression model with a sigmoidal dose response.

T5 sequence (P04626 with tags, fused parts or gaps DELINS776-776VC): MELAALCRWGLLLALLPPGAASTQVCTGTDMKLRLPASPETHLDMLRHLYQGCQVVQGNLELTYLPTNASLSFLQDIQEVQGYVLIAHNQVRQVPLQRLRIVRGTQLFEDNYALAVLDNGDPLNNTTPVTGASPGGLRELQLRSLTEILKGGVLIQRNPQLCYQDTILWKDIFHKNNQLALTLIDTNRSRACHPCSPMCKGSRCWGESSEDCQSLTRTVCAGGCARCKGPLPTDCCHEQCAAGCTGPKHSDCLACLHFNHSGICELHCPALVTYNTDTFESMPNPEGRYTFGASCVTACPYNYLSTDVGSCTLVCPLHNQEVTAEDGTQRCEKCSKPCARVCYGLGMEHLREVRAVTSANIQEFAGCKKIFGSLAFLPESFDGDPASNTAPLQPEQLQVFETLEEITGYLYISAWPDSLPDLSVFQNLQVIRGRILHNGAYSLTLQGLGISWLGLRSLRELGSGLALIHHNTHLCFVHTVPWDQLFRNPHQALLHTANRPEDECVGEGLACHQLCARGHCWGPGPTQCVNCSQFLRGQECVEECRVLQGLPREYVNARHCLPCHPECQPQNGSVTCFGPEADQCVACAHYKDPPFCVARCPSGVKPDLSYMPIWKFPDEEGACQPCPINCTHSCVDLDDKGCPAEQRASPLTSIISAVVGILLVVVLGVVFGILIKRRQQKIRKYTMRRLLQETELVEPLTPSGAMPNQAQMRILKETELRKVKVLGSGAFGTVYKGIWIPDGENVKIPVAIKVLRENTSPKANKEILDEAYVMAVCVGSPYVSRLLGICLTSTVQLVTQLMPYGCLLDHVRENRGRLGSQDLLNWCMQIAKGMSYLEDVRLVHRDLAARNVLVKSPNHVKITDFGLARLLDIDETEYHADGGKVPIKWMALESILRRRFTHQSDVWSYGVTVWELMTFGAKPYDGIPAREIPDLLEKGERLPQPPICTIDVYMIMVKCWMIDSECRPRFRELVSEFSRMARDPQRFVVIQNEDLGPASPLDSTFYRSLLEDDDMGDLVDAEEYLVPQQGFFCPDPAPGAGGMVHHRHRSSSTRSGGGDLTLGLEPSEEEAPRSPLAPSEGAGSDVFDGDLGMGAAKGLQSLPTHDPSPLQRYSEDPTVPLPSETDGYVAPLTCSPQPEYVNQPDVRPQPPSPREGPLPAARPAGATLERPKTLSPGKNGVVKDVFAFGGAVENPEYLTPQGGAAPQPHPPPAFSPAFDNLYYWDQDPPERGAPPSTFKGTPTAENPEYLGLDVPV
T4 sequence (P04626 with tags, fused parts or gaps DUP772-775): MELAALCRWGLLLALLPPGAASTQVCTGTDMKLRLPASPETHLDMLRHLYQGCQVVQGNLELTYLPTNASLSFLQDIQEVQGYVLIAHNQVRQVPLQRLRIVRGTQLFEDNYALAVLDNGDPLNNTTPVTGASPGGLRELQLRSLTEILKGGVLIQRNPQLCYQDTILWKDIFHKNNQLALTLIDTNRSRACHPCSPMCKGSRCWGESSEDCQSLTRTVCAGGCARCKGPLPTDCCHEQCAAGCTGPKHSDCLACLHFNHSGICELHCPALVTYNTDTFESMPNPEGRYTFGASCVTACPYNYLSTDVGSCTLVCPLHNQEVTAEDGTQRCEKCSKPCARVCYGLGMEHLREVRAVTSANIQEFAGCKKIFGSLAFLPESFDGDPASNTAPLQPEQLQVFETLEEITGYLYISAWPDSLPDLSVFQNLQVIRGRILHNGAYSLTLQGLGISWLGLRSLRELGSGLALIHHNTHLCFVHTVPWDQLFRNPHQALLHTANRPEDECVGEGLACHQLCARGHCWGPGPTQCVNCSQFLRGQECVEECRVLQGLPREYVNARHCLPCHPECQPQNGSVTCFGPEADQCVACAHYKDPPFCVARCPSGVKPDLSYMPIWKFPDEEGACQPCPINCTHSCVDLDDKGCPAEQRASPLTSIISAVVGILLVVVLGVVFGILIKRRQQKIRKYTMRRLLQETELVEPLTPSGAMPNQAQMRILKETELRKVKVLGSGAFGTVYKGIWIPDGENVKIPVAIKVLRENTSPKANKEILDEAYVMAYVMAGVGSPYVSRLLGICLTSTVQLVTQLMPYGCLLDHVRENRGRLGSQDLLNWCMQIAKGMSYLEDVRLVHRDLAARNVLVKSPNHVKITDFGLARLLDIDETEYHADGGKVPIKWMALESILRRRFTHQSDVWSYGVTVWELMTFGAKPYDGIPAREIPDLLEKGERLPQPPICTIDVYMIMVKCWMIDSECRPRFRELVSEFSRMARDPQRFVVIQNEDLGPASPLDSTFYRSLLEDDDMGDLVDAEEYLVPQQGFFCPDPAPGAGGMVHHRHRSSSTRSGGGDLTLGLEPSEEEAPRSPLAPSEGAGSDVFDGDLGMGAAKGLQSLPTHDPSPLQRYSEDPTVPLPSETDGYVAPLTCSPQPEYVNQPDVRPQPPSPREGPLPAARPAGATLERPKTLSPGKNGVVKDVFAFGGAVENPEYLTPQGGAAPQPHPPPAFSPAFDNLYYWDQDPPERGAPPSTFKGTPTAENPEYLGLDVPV
T8 sequence (P04626 whole entry, change not shown): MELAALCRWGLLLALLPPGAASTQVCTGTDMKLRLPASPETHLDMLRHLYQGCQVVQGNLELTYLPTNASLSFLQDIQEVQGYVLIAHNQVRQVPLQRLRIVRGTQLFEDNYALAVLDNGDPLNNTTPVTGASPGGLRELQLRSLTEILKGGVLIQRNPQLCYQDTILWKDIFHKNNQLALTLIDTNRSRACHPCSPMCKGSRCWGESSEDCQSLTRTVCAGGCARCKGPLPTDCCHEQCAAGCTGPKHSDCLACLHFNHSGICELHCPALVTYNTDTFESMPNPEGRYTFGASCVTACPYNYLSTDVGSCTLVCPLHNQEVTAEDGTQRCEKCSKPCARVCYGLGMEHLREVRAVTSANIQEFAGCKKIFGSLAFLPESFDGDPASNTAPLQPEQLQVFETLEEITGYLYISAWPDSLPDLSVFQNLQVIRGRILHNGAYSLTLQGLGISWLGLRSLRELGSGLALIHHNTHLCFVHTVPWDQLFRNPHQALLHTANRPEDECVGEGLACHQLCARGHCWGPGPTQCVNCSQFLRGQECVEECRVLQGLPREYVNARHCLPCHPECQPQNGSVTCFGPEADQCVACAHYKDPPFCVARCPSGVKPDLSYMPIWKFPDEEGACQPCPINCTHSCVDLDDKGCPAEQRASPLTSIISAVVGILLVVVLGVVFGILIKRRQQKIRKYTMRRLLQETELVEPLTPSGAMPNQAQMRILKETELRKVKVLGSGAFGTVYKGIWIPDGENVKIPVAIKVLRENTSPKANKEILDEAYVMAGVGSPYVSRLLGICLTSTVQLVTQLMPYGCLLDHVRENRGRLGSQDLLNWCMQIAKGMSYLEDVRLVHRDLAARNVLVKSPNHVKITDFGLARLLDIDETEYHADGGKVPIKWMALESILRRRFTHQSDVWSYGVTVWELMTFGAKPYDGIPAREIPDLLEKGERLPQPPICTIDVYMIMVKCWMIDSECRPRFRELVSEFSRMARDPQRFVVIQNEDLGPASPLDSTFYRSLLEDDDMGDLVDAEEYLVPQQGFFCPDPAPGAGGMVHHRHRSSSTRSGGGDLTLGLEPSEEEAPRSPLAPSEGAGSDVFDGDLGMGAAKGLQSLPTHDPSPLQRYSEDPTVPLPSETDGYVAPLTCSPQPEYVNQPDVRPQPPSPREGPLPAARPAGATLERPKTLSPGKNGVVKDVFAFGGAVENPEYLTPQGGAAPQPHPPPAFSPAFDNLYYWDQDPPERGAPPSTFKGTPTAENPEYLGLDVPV
T3 sequence (P04626 with tags, fused parts or gaps INS778CG): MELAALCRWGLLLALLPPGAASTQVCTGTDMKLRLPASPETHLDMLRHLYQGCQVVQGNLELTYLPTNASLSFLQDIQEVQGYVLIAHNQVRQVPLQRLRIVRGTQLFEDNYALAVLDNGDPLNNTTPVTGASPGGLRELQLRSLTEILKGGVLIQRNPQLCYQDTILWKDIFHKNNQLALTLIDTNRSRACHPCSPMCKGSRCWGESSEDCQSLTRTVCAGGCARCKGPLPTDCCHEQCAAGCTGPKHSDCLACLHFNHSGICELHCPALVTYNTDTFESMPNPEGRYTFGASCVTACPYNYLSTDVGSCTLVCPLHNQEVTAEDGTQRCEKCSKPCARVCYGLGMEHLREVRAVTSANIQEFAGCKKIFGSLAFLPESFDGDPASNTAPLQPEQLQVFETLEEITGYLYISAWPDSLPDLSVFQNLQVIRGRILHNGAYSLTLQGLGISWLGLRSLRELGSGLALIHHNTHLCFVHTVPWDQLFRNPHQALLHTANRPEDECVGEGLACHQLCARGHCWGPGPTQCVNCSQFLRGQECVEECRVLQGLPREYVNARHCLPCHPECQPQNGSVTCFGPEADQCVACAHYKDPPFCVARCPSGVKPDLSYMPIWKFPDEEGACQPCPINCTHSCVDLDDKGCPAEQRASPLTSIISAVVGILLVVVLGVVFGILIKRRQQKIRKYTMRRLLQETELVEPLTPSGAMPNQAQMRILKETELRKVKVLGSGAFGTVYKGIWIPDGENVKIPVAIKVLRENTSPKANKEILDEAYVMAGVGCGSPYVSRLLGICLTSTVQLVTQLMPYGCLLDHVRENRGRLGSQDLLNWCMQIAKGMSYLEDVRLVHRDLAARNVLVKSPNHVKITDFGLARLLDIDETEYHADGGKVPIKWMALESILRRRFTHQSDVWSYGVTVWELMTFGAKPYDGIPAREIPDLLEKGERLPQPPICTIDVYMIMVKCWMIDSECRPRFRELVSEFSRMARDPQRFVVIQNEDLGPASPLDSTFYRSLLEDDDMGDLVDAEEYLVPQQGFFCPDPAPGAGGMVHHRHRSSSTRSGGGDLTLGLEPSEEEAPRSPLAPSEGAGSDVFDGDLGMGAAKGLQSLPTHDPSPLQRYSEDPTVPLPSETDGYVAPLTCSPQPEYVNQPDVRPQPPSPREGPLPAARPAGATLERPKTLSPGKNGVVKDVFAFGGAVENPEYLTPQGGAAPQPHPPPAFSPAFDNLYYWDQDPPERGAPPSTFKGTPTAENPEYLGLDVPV

In general, IC50 refers to the midpoint of a concentration-inhibition curve. Take `CC#CC(=O)Nc1ccc2ncnc(Nc3ccc(Oc4ccc(C)nc4)cc3)c2c1` [Compound 9, N-[4-([4-[(6-methylpyridin-3-yl)oxy]phenyl]amino)quinazolin-6-yl]but-2-ynamide]: the IC50 in [1] is 454 nM; in experiment [2], 142 nM; in experiment [3], 12.3 nM; in experiment [12], 43.9 nM. Also, the GI50 was found to be 35 nM in [4]; 239 nM in experiment [5]; 2.4 nM in [6]; 20 nM in experiment [7]; 21 nM in experiment [8]; 4.1 nM in [9]. The GI50 in experiment [10] came to 15 nM; in experiment [11], 5.7 nM; in experiment [13], 5.5 nM.
With `CC#CC(=O)Nc1ccc2ncnc(Nc3ccc(Oc4cnc(C)cn4)cc3)c2c1` [Compound 10, N-[4-([4-[(5-methylpyrazin-2-yl)oxy]phenyl]amino)quinazolin-6-yl]but-2-ynamide], the IC50 amounted to 1080 nM in [1], 232 nM in experiment [2], 35.5 nM in experiment [3] and 74.9 nM in experiment [12]. In addition, the GI50 in [4] was 81 nM; in experiment [5], 220 nM; in experiment [6], 9.3 nM; in experiment [7] it was 49 nM; in experiment [8], 81 nM; in [9] it was 7.3 nM. In addition, the GI50 was 15 nM in experiment [10], 13.1 nM in experiment [11] and 16 nM in experiment [13].
In the case of `CC#CC(=O)Nc1ccc2ncnc(Nc3ccc(Cc4ccn5ncnc5c4)cc3)c2c1` [Compound 14, N-[4-[(4-[[1,2,4]triazolo[1,5-a]pyridin-7-ylmethyl]phenyl)amino]quinazolin-6-yl]but-2-ynamide], the IC50 in experiment [1] was 3550 nM; in experiment [2] it was 30.4 nM; in experiment [3], 9.6 nM; in experiment [12], 14.3 nM. The GI50 in experiment [4] was 25 nM; in experiment [5], 482 nM; in [6], 4 nM; in experiment [7] it was 36 nM; in experiment [8], 13 nM; in experiment [9], 1.5 nM. Moreover, the results for the GI50 in [10], in experiment [11] and in experiment [13] were 9.5 nM, 5.1 nM and 3.8 nM, respectively.
